Measured values published in publication PMC8524858, “Dual inhibition of αvβ6 and αvβ1 reduces fibrogenesis in lung tissue explants from patients with IPF” (Respiratory Research, 2021).

What was measured:
human integrin αvβ8 = target: T1, human integrin αvβ8 (Homo sapiens, UniProt P06756+P26012); assay: Integrin ligand-binding assay, αvβ8 (LAP ligand)
T1 construct: purchased R&D Systems 4135-AV
Description: Integrin ligand-binding assays were performed similar to that previously described.
Microplates were coated with recombinant human integrins dissolved in PBS (2 µg/ml, overnight at room temperature). Following removal of the coating solution, plates were washed with PBS. Plates were blocked with 200 µL/well of blocking buffer (2% bovine serum albumin [BSA] in PBS) at 37 °C for 1 h. […] Plates were incubated for 2 h at 25 °C, washed, and incubated for 1 h with biotin-labeled anti-fibronectin or anti-LAP antibodies (for αvβ1 or αvβ6/αvβ8, respectively).

[1] = system: normal human lung fibroblast adhesion to LAP; assay: Primary cell LAP adhesion assay (cell impedance), normal HLF; assay type: cell-based; conditions: HLFs isolated from normal lung tissue, read-out: IC50 for blocking adhesion to LAP
Description: Adhesion of primary human lung cells to LAP was quantified using the xCELLigence RTCA MP instrument (ACEA Biosciences; San Diego, CA, USA) via cell impedance measurements similar to that previously described.
Adhesion assays were performed using the xCELLigence RTCA MP instrument (ACEA Biosciences; San Diego, CA, USA) on 96-well PET plates (ACEA Biosciences; 300600910) via a cell impedance measurement similar to one previously described (E6). Plates were coated with LAP (Sino Biological; 10804-H08H1) overnight at 4 °C and blocked with BSA for 2 h at 37 °C. NHLF (40,000 cells/well), dHLF (40,000 cells/well), or NHBE (20,000 cells per well) in FBS-free media were combined with small-molecule integrin inhibitors or antibodies in the plates and incubated at 37 °C with 5% CO2. […] Anti-αv antibody, 17E6, and anti-β1 antibody, P5D2, were tested at a single concentration (10 μg/ml). Cell impedance (cell index) was measured at baseline and every 3 min for up to 24 h using xCELLigence RTCA 2.1.0 Software (ACEA Biosciences). […] Geometric mean IC50 was calculated for each compound following repeat analyses of multiple donor cells.

[2] = system: Smad2 phosphorylation (canonical TGF-β signaling) in IPF PCLSs; assay: Smad2 phosphorylation in PCLSs from IPF explant tissue; assay type: cell-based, human; conditions: 7 days; n = 3 individual patients (Fig. S1B)
Description: Integrin αvβ1 protein levels and Smad phosphorylation levels in tissues or cells were quantified by the Meso Scale Discovery custom electrochemiluminescence assay.
Biotin-labeled antibodies for total Smad2/3, phosphorylated Smad2 (pSmad2), and total Smad2 (Cell Signaling Technology; Danvers, MA, USA), and antibodies for phosphorylated Smad3 (pSmad3) and total Smad3 (Abcam; Cambridge, UK) were utilized for pSmad electrochemiluminescence assays.
pSmad2 and total Smad2 quantitation were performed similarly to that described for pSmad3 and total Smad3 above, with the exception that U-PLEX linker conjugated biotinylated anti-pSmad2 and total Smad2 antibodies were bound to U-PLEX MSD assay plates (MSD; K15227N-2) according to manufacturer’s instruction, followed by unknown sample incubation and addition of sulfo-tag-labeled anti-Smad2/3 antibody.
Human PCLSs were generated from lung tissue explants from patients with IPF undergoing transplant surgery and cultured based on previously reported methods (E7-E12). Slices of tissue (400 µm) were cut using a Compresstome VF-300-0Z (Precisionary Instruments; Natick, MA, USA).

[3] = system: bleomycin-challenged C57BL/6 mice; assay: In vivo bleomycin mouse model of pulmonary fibrosis; conditions: Day 7 to Day 21 after bleomycin
Description: C57BL/6 mice (Charles River; Hollister, CA, USA) were administered 3 units/kg bleomycin (Teva; Toronto, ON, Canada) or vehicle (water) via oropharyngeal aspiration. Lung tissue and bronchioalveolar lavage (BAL) cells were collected after 14 or 21 days to evaluate Smad phosphorylation and collagen deposition.
OHP levels and fractional synthesis rates were determined similar to that previously described.
Formalin-fixed, paraffin-embedded mouse lung tissue sections underwent SHG imaging to characterize the quantity and quality of fibrillar collagen deposition using methods similar to that previously described.
For pSmad3 and total Smad3 quantitation, lung tissues or bronchoalveolar lavage (BAL) cells were lysed in RIPA buffer with protease inhibitor cocktail (Thermo Fisher; #78442). Total protein concentration was normalized across lysates following quantitation by bicinchoninic acid protein assay (Thermo Fisher; #23225). MSD GOLD 96 Small Spot Streptavidin plates were rinsed with PBST, followed by incubation with 1 µg/ml of biotinylated anti-Smad2/3 antibody under agitation for 1 h. Following a second rinse, a 50:50 mix of unknown sample and PBST was added to duplicate wells. Following a 1 h incubation and another rinse, 1 µg/ml of sulfo-tag-labeled anti-pSmad3 or anti-Smad3 antibody was added and incubated for 1 h under agitation. After a final rinse, 1x read buffer was added and the plate was read using an MSD sector imager instrument (SECTOR S 600). pSmad3/Smad3 signal ratios were compared across time points to calculate fold changes.
Male, 8-week-old C57BL/6 mice (Charles River; Hollister, CA, USA) were administered 3 U/kg bleomycin (Teva) or vehicle (water) via oropharyngeal aspiration while under anesthesia (ketamine/xylazine). […] Total lung weights were recorded, and right lobes were snap-frozen and stored at -80 °C. […]
OHP levels in mouse lung tissue were determined similar to that previously described (E15) using the QuickZyme hydroxyproline assay kit (QuickZyme Biosciences; Leiden, Netherlands). […] Hydrolysate was adjusted to 4 M HCl and analyzed for OHP concentrations in a 96-well format, according to manufacturer’s instruction. Absorbance was read at 570 nm with an Infinite M200 PRO microtiter plate reader (Tecan; Crailsheim, Germany) and total lung OHP levels calculated from OHP concentrations (µg OHP/mg tissue) by normalizing to total lung weight. […]
Formalin-fixed paraffin embedded sections prepared from mouse lung tissue underwent SHG imaging to characterize both the quantity and quality of fibrillar collagen deposition using methods similar to that previously described (E16). […]

T1 sequence (P06756 31-992 limits assumed): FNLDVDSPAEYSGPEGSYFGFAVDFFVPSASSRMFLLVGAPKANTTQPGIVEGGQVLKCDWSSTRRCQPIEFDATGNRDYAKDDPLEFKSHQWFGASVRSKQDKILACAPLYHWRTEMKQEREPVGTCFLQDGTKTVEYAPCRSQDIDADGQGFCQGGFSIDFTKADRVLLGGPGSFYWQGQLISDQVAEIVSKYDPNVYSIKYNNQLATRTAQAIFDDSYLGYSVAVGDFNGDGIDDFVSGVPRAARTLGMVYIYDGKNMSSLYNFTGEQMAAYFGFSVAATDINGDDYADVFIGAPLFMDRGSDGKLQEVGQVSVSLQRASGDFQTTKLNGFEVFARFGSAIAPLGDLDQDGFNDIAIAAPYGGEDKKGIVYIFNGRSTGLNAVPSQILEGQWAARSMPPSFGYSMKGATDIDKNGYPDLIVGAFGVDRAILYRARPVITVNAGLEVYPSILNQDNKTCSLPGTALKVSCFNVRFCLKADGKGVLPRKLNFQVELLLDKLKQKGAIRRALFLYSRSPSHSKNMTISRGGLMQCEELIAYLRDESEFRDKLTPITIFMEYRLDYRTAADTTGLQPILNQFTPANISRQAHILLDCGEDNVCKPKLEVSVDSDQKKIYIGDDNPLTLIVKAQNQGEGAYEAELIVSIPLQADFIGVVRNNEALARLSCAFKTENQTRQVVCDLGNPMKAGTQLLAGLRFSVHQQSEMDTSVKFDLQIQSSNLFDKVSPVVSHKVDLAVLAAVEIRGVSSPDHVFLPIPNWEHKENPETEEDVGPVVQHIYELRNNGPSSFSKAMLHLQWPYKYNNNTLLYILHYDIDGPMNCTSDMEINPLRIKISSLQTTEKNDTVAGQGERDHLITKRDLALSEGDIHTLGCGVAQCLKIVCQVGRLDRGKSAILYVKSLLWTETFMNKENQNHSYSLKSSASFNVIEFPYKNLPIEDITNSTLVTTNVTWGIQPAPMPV
T1 sequence (P26012 43-684 limits assumed): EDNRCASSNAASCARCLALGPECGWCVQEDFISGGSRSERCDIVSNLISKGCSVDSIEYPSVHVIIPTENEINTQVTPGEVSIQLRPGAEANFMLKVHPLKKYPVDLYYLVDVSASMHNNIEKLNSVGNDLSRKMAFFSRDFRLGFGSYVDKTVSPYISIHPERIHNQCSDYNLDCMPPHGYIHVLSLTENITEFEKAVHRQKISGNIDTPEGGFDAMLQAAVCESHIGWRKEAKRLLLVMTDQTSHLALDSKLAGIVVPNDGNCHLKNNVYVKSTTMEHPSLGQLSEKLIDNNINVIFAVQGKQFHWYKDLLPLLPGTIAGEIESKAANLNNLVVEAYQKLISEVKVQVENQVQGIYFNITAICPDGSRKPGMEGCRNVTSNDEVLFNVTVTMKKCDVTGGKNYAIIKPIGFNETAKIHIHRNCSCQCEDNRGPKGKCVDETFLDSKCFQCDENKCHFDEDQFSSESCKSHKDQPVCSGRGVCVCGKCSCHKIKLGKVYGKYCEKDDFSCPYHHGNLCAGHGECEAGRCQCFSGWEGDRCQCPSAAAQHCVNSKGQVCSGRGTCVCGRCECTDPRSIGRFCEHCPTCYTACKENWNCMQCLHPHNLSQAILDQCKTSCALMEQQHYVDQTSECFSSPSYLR

COCCN(CCCCc1ccc2c(n1)NCCC2)CC[C@H](Nc1ncnc2ccccc12)C(=O)O [PLN-74809]
IC50 (human integrin αvβ8): 2.54 µM
Fold selectivity (vs αvβ6) (human integrin αvβ8; ligand binding): 445×
IC50 [1]: 0.0157 µM
reduction in Smad2 phosphorylation [2]: approximately 50%
Smad3 phosphorylation in lung tissue ([3]; oral 100, 250, 500 mg/kg BID): dose-dependently blocked
interstitial fibrillar collagen deposition (SHG imaging) ([3]; oral 100, 250, 500 mg/kg BID, vs vehicle): dose-dependent, significant reduction
total pulmonary hydroxyproline levels ([3]; oral 100-500 mg/kg BID, vs vehicle (Fig. S3A)): dose-dependently reduced
hydroxyproline deposition rate (2H incorporation) ([3]; oral 100-500 mg/kg BID, vs vehicle (Fig. S3B)): dose-dependently reduced
